Measurements published in PMC12526156, “Optimization of the Macrocyclic Tetrapeptide [D-Trp]CJ-15,208 to Prevent Stress-Induced Relapse of Cocaine-Seeking Behavior” (Molecules, 2025).
≈ marks a conversion by molar mass, not a printed value. Like-named read-outs stand apart in the source and are kept apart here. Where a SMILES comes first, the peptide text is derived from it. [ ]: non-standard residue; d: D form. dPhe(4-NO2) = N[C@H](Cc1ccc([N+](=O)[O-])cc1)C(=O)O; dPhe(3,4,5-F3) = N[C@H](Cc1cc(F)c(F)c(F)c1)C(=O)O; dTrp(1-Me) = Cn1cc(C[C@@H](N)C(=O)O)c2ccccc21; dPhe(3,4-F2) = N[C@H](Cc1ccc(F)c(F)c1)C(=O)O; dPhe(3-Me) = Cc1cccc(C[C@@H](N)C(=O)O)c1; dPhe(3-F) = N[C@H](Cc1cccc(F)c1)C(=O)O

Assays:
[1] = target: T1, hKOR (Homo sapiens, UniProt P41145); experiment: Competition binding, [3H]U69,593, hKOR-CHO membranes; conditions: for Ki: [3H]U69,593, human KOR, ± S.E.M., three independent experiments, read-out: KOR Ki
[2] = target: T2, human MOR (Homo sapiens, UniProt P35372); experiment: biochemical; format: binding
T2 construct: expressed in transfected cells

[3] = target: T1, hKOR; experiment: KOR cAMP assay using GloSensor-22F, agonist mode (KOR-CHO-GLO cells); format: cell-based; conditions: for Emax at 10 µM: read-out: KOR Efficacy (%)
[4] = target: T1, hKOR; experiment: KOR cAMP assay using GloSensor-22F, antagonist mode (vs 10 nM U50,488); format: cell-based
From the text: A piggy-Bac (PB) transposon/transposase system was utilized to allow for the stable integration of the GloSensor-22F cAMP sensor (Promega, Madison, WI, USA) gene into genomic TTAA sites in Chinese hamster ovary cells already stably expressing the hKOR. The pFastBac hyperPB plasmid vector, which codes for the piggy-Bac transposon/transposase system, was utilized and was a kind gift from Dr. John Lueck. The multicistronic expression cassette developed for our experiments consisted of a CMV promoter driving constitutive expression of GloSensor-22F cAMP sensor, followed by an internal ribosome entry site (IRES) to drive the expression of codon-optimized HygR-P2A-mScarlet (hygromycin resistance gene and mScarlet separated by a 2A self-cleaving peptide element). To clone the expression cassette onto the pFastBac vector, the CMV promoter and GloSensor-22F were PCR amplified from pGloSensor-22F cAMP Plasmid (Promega), the IRES sequence was PCR amplified from pLVX-CMV-Galpha-oA ONE-GO (a gift from Dr. Mikel Garcia-Marcos, Addgene plasmid #189732), the HygR-P2A-mScarlet sequence was a kind gift from Dr. Lueck, and a bGH-poly(A) termination sequence was PCR amplified from pcDNA3.1(+). The pFastBac vector was linearized via overnight digestion with CspCI at 37 °C, which cuts between two inverted terminal repeat (ITR) sequences, and the corresponding backbone and all PCR fragments were gel purified and assembled via Gibson assembly using the Gibson Assembly MasterMix (New England Biolabs, Ipswich, MA, USA). The resulting pFastBac CMV GloSensor-22F IRES HygR-P2A-mScarlet bGH plasmid was transformed into NEB Stable Competent E. coli (New England Biolabs), miniprepped using the E.Z.N.A. Plasmid DNA Mini Kit (Omega Bio-Tek, Norcross, GA, USA), and sequence verified by nanopore whole-plasmid sequencing (Eurofins Genomics, Louisville, KY, USA).
3.0 × 10^6 hKOR-CHO cells were plated on a 6 cm dish and incubated for four h at 37 °C and 5% CO2 in DMEM (Corning Mediatech, Manassas, VA, USA) supplemented with 5% FBS (Corning Mediatech), 1% Penicillin/Streptomycin (Gibco, Waltham, MA, USA). The cells were then transfected with 2.0 μg pFastBac CMV GloSensor-22F IRES HygR-P2A-mScarlet bGH using PEI as a transfection reagent. The following day, transfected cells were reseeded onto a 10 cm dish at a density of 5.0 × 10^5 cells and 600 μg/mL hygromycin B (Gold Bio, St. Louis, MO, USA) was added to the culture media. Cells were cultured under selection antibiotics for seven days, and the selection process was monitored by the increase in abundance of mScarlet positive cells via epifluorescence microscopy.
Following the selection period, KOR-CHO-GLO cells were maintained at 37 °C and 5% CO2 in DMEM supplemented with 5% FBS, 1% Penicillin/Streptomycin and 300 μg/mL hygromycin B to reduce the likelihood of CMV promoter silencing. On the day of the assay, cells were detached with 0.05% trypsin (Gibco) and counted, then centrifuged (1000× g, 5 min) and resuspended in assay buffer (1xPBS, 0.1% glucose, 0.5 mM MgCl2) containing 4 mM D-luciferin substrate (Gold Bio) at approximately 2 million cells/mL. 25 μL of cells (~50,000/well) were seeded onto poly L-lysine-coated white 96-well flat bottom plates (Greiner Bio-One, Kremsmünster, Austria)) and returned to the incubator for 60 min. Following incubation, cells were allowed to equilibrate to room temperature protected from light (10–15 min). Initial luminescence readings (at least 10 cycles) were collected for each well using a FLUOstar Omega v.6.2 plate reader (BMG Labtech, Ortenberg, Germany), after which the plate was removed. Prepared 4x treatments of drug (25 μL) were added to appropriate wells followed by 50 μL of 20 μM forskolin (AmBeed, Buffalo Grove, IL, USA) before the plate was returned to the reader and luminescence measured until final plateau levels were achieved (20–30 min). Assays were performed in duplicate and repeated at least three times.

[5] = Metabolic stability in human liver microsomes; format: in vitro ADME; conditions: 1 mg protein/mL; for half-life at 1 µM / microsomal CLint at 1 µM: human liver microsomes
Procedure: (§1) Evaluation of the metabolic stability of the macrocyclic tetrapeptides by human and mouse liver microsomes was performed by Curia Global (Buffalo, NY, USA). […]

[6] = Metabolic stability in mouse liver microsomes; format: in vitro ADME; conditions: 1 mg protein/mL; for half-life at 1 µM / microsomal CLint at 1 µM: mouse liver microsomes
Procedure: as §1

[7] = Kinetic aqueous solubility; format: physicochemical; conditions: 1% DMSO, pH 7.4
From the text: Table A1 Stability of [D-Trp]- and [D-Phe^4]CJ-15,208 and selected analogs in human (HLMs) and mouse liver microsomes (MLMs)^1. and kinetic aqueous solubility. | column: Solubility ^2 / (µM)

[8] = tested on: C57BL/6J mice; experiment: 55 °C warm-water tail-withdrawal assay, antinociception; format: in vivo, mouse; conditions: for antinociception: p.o. dose response, significant only first 10 min at high doses
Procedure: For intracerebroventricular administration, peptides were dissolved in DMSO at a concentration of 20 mM (100 nmol/5 µL), then diluted to test doses in a final vehicle solution of 50%DMSO/50% saline (0.9%). For all other testing (for oral administration), peptides were made fresh each day for testing in a final vehicle solution of 10% DMSO/10% Solutol/80% saline (0.9%).
Intracerebroventricular injections were made directly into the lateral ventricle according to the modified steps detailed previously. The volume of all i.c.v. injections was 5 μL, using a 10 μL Hamilton microliter syringe. The mouse was lightly anesthetized with isoflurane, an incision was made in the scalp, and the injection was made 2 mm lateral and 2 mm caudal to bregma at a depth of 3 mm.
The dose response of analogs 3, 6, 9 and 14 were also assessed following administration of one of up to four additional oral (p.o.) doses (1–30 mg/kg).

[9] = target: CNS KORs (Mus musculus, UniProt P33534); experiment: 55 °C WWTW assay, antagonism of centrally administered U50,488 (30 nmol, i.c.v.); conditions: 2.5 h pretreatment, 30 mg/kg, p.o. (9: 10 mg/kg, p.o.)
[10] = [3H]DAMGO, human MOR, ± S.E.M., three independent experiments, read-out: MOR Ki
[11] = 1 µM compound, 37 °C, read-out: HLM t1/2
[12] = 1 µM compound, 37 °C, read-out: MLM t1/2
[13] = 30 mg/kg, p.o., 30 min after administration

Row | Structure (SMILES) | Selectivity (MOR Ki/KOR Ki) ([1]; MOR Ki/KOR Ki) | Ki [1] [nM] | Ki [2, 10] [nM] | Emax at 10 µM [3] [%] | IC50 [4] [nM] | half-life at 1 µM [5, 11] [min] | microsomal CLint at 1 µM ([5]; read-out: HLM CLint) [µL/min/mg] | half-life at 1 µM [6, 12] [min] | microsomal CLint at 1 µM ([6]; read-out: MLM CLint) [µL/min/mg] | solubility kinetic [7] [µM] | antinociception vs vehicle [8, 13] | other results
1 | Cn1cc(C[C@H]2NC(=O)[C@H](Cc3ccccc3)NC(=O)[C@H]3CCCN3C(=O)[C@H](Cc3ccccc3)NC2=O)c2ccccc21 [Analog 2, [D-Trp(Me)]CJ-15,208] (cyclo(F[dP]F[dTrp(1-Me)])) | 2 | 16 ± 0.8 | 36 ± 2.6 | 14 ± 7.1 | 220 ± 32 | 2.4 | 286 | 3.3 | 211 | 12 (≈ 7.1 µg/mL) |  | 
2 | O=C1N[C@H](Cc2cc(F)c(F)cc2F)C(=O)N[C@@H](Cc2ccccc2)C(=O)N2CCC[C@@H]2C(=O)N[C@H]1Cc1ccccc1 [Analog 10] | 10 | 27 ± 3.3 | 270 ± 30 | 19 ± 6.8 | 290 ± 40 | 1.5 | 462 | 1 | 699 | 7.4 (≈ 4.39 µg/mL) |  | 
3 | Cc1cccc(C[C@H]2NC(=O)[C@H](Cc3ccccc3)NC(=O)[C@H]3CCCN3C(=O)[C@H](Cc3ccccc3)NC2=O)c1 [Analog 14, [D-Phe(m-Me)^4]CJ-15,208] (cyclo(F[dP]F[dPhe(3-Me)])) | 5 | 26 ± 3 | 130 ± 11 | 0.74 ± 5.7 | 320 ± 67 |  |  |  |  | 19 (≈ 10.5 µg/mL) |  | half-life ([5]; microsomes, 1 µM compound, 37 °C, read-out: HLM t1/2): 4.1 min; microsomal CLint ([5]; microsomes, read-out: HLM CLint): 170 µL/min/mg; half-life ([6]; microsomes, 1 µM compound, 37 °C, read-out: MLM t1/2): 1.5 min; microsomal CLint ([6]; microsomes, read-out: MLM CLint): 467 µL/min/mg; antinociception [8]: < 20%; antagonism of CNS KORs [9]: ineffective
4 | O=C1N[C@H](Cc2cccc(F)c2)C(=O)N[C@@H](Cc2ccccc2)C(=O)N2CCC[C@@H]2C(=O)N[C@H]1Cc1ccccc1 [Analog 6, [D-Phe(m-F)^4]CJ-15,208] (cyclo(F[dP]F[dPhe(3-F)])) | 5 | 32 ± 5.8 | 160 ± 15 | 11 ± 5.6 | 340 ± 58 | 1.8 | 376 | 2.1 | 331 | 26 (≈ 14.5 µg/mL) |  | antinociception [8]: < 20%; antagonism of CNS KORs [9]: ineffective
5 | O=C1N[C@H](Cc2ccc(F)c(F)c2)C(=O)N[C@@H](Cc2ccccc2)C(=O)N2CCC[C@@H]2C(=O)N[C@H]1Cc1ccccc1 [Analog 8] (cyclo(F[dP]F[dPhe(3,4-F2)])) | 9 | 6.6 ± 0.73 | 57 ± 5.6 | 13 ± 2.7 | 170 ± 28 | 2.2 | 309 | 1.1 | 629 | 9.5 (≈ 5.46 µg/mL) | significant antinociception | 
6 | O=C1N[C@H](Cc2ccc([N+](=O)[O-])cc2)C(=O)N[C@@H](Cc2ccccc2)C(=O)N2CCC[C@@H]2C(=O)N[C@H]1Cc1ccccc1 [Analog 16] (cyclo(F[dP]F[dPhe(4-NO2)])) | 9 | 7 ± 0.99 | 61 ± 2.7 | 7.3 ± 7.3 | 210 ± 13 | 6.7 | 103 | 4.4 | 159 | 6.7 (≈ 3.91 µg/mL) |  | 
7 | O=C1N[C@H](Cc2cc(F)c(F)c(F)c2)C(=O)N[C@@H](Cc2ccccc2)C(=O)N2CCC[C@@H]2C(=O)N[C@H]1Cc1ccccc1 [Analog 11] (cyclo(F[dP]F[dPhe(3,4,5-F3)])) | 4 | 12 ± 0.44 | 46 ± 5.4 | 2.2 ± 6.2 | 160 ± 19 | 1.6 | 447 | 2.9 | 238 | 4.8 (≈ 2.84 µg/mL) |  | 
8 | COc1ccc(C[C@H]2NC(=O)[C@H](Cc3ccccc3)NC(=O)[C@H]3CCCN3C(=O)[C@H](Cc3ccccc3)NC2=O)cc1 [Analog 18, [D-Tyr(Me)^4]CJ-15,208] (cyclo(F[dP]F[dY](Me))) |  | 150 ± 16 |  |  |  |  |  |  |  |  | significant antinociception | 
9 | CN1CC[C@]23c4c5ccc(O)c4O[C@H]2[C@@H](O)C=C[C@H]3[C@H]1C5 [morphine, reference compound] |  |  |  |  |  |  |  |  |  |  | significant antinociception | antinociception vs vehicle ([8]; 30 nmol, i.c.v., positive control): significant antinociception
10 | Cc1cc(C)cc([C@@H]2CCCN2Cc2ccc(Oc3ccc(C(N)=O)cc3F)cc2)c1 [Aticaprant, reference compound] |  | 0.77 ± 0.1 |  |  |  |  |  |  |  |  |  | Selectivity (MOR Ki/KOR Ki) [1]: 19; Ki [2]: 15 ± 2 nM; activity type in the cAMP assay [3]: inverse agonist; KOR Efficacy (%) ([3]; mean % inhibition ± SEM at 10 µM relative to the KOR agonist U50,488, forskolin-stimulated cAMP): −48 ± 3.0 ^8%; IC50 ([4]; antagonism of an IC80 concentration (10 nM) of U50,488 in the cAMP assay, ± SEM, read-out: KOR Antag. IC50): 8 ± 1.7 nM
